# Measured values published in patent US20260309717A1, “PROXIMITY INDUCING SYSTEM AND USES THEREOF” (SORBONNE UNIVERSITE, priority 2022, published 2026).
# Key:
# [1] = target: T1, mCherry-^FIREtag / ^FIREmate-ECFP-Cb5 (Halorhodospira halophila, UniProt P16113, A30V/C69G/D97P/F96I, form not given/G21E/G25R/K17N/M100R/M109L/Q41L/Q99S/S72T/T101G/V83A/Y94W/Y98T); test: Recruitment of cytoplasmic protein to the endoplasmic reticulum, HeLa cells; format: cell-based; settings: 10 μM
# T1 construct: FIREmate-ECFP-Cb5(100-134) and mCherry-FIREtag in HeLa cells
# T1 sequence (P16113 1-114 A30V/C69G/D97P/F96I/G21E/G25R/K17N/M100R/M109L/Q41L/Q99S/S72T/T101G/V83A/Y94W/Y98T): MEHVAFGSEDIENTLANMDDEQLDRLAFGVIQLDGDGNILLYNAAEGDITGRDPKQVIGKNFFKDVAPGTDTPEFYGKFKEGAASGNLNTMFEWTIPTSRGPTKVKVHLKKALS
# Experimental: FIGS. 7A-E illustrate the recruitment of cytoplasmic proteins to the endoplasmic reticulum with the proximity inducing system described herein. FIG. 7A is a representation of the experimental design wherein HeLa cells co-expressing mCherry-^FIREtag and ^FIREmate-ECFP-Cb5 were treated with 10 μM of match (either HBR-2,5DM or HMBR), and imaged by time-lapse confocal microscopy. FIGS. 7B-C are graphs showing the temporal evolution of the FIRE signal detected upon addition at 0 min of HBR-2,5DM (match1-7C) or HMBR (match2-7D). Data represents the mean values±SD of 17 cells from n=3 independent experiments (7B, D), or of 18 cells from n=3 independent experiments (7C, E). FIGS. 7D-E are sets of representative confocal micrographs of cells before (0 min) and after (5 min) addition of HBR-2,5DM (match1-7D) or HMBR (match2-7E) (mCherry: ex/em 561/606-675 nm; FIRE: ex/em 488/508-570 nm; ECFP: ex/em 445/455-499 nm). […] Scale bars are 20 μm.
# The confocal micrographs were acquired on a Zeiss LSM 980 Laser Scanning Microscope equipped with a plan apochromat 63x/1.4 NA oil immersion objective. ZEN software was used to collect the data. The images were analyzed using Icy (2.4.0.0) and Fiji (Image J). In short, to track fluorescence signal in a specific organelle, a ROI (region of interest) was determined by masking the signal in the ECFP (Enhanced Cyan Fluorescent Protein) channel with the plug-in HK-means with the following parameters: intensity class equals 100, minimum object size (pixels or px) equals 500, maximum object size (px) equals 1500-3000. The signal intensity of the ROI was tracked over time for each channel by using plug-in Active Contours. The background signal was subtracted. Data were processed using GraphPad Prism v9.3.0.
# To further evaluate the scope of the proximity inducing system described herein and show its versatility, ^FIREmate was anchored at the membrane of various organelles or cellular structures so that ^FIREmate faced the cytosol. ^FIREmate was thus fused: • to the N-terminus of the transmembrane domain (amino acid residues at positions 3131-3259) of Giantin for location at the cis-medial rims of the Golgi apparatus (FIG. 6A), • to the N-terminus of the transmembrane domain (amino acid residues at positions 100-134) of the cytochrome b5 (Cb5) for location at the endoplasmic reticulum membrane (FIG. 7A), and • to the C-terminus of the Lyn11 inner membrane targeting sequence for location at the plasma membrane (FIG. 8A).
# For each construct, an ECFP was inserted between ^FIREmate and the other protein domain/sequence to monitor the localization of the resulting fusion protein (blue fluorescence). Each fusion protein was co-expressed in mammalian cells (HeLa cells or HEK293 cells as indicated) together with mCherry-^FIREtag (red fluorescence). […]
# [2] = target: T2, mCherry-^FIREtag / ^FIREmate-ECFP-Giantin (Halorhodospira halophila, UniProt P16113, A30V/C69G/D97P/F96I, form not given/G21E/G25R/K17N/M100R/M109L/Q41L/Q99S/S72T/T101G/V83A/Y94W/Y98T); test: Reversibility of the ternary assembly (washout), time-lapse spinning-disk confocal microscopy, HeLa cells; format: cell-based; settings: 10 μM
# T2 construct: FIREmate-ECFP-Giantin(3131-3259) and mCherry-FIREtag in HeLa cells
# T2 sequence (P16113 1-114 A30V/C69G/D97P/F96I/G21E/G25R/K17N/M100R/M109L/Q41L/Q99S/S72T/T101G/V83A/Y94W/Y98T): T1 sequence (P16113 1-114 A30V/C69G/D97P/F96I/G21E/G25R/K17N/M100R/M109L/Q41L/Q99S/S72T/T101G/V83A/Y94W/Y98T)
# Experimental: HeLa cells co-expressing mCherry-^FIREtag and ^FIREmate-ECFP-Giantin were treated with 10 μM HBR-2,5DM (match1), washed with HBR-2,5DM-free medium and then treated with 10 μM HBIR-3M. Cells were imaged by time-lapse spinning-disk confocal microscopy. FIGS. 9A-D are sets of representative confocal micrographs of untreated cells (9A), cells after addition of HBR-2,5DM (match1) (9B), cells after washout of HBR-2,5DM (match1) (9C), and cells after addition of HBIR-3M (9D). (mCherry: ex/em 561/606-675 nm; FIRE: ex/em 488/508-570 nm). Scale bars are 10 μm.
# To test whether formation of the fluorescent ternary assembly could be reversed though removal of the fluorogen, the fusion proteins mCherry-^FIREtag (red fluorescence) and ^FIREmate-ECFP-Giantin (blue fluorescence) were co-expressed in Hela cells (FIG. 9A). Formation of a fluorescent ternary assembly between ^FIREtag, ^FIREmate and HBR-2,5DM was induced by addition of 10 μM of HBR-2,5DM (FIG. 9B). […] The ability to reverse the fluorescence ternary assembly at will allowed to induce repeated catch and release cycles through sequential addition and removal of HBR-2,5DM. The ability to control protein proximity through addition and removal of a molecular inducer of proximity is unprecedented and opens great prospect to control the proximity of two proteins with high temporal resolution.
smiles,measurement,setting,value
"Cc1cc(/C=C2\SC(=S)NC2=O)c(C)cc1O [HBR-2,5DM, (Z)-5-(4-hydroxy-2,5-dimethylbenzylidene)-2-thioxo-1,3-thiazolidin-4-one]",FIRE signal at the endoplasmic reticulum,[1],simultaneous appearance of green fluorescence
same,translocation of mCherry-^FIREtag to the endoplasmic reticulum,[1],rapid translocation of mCherry-^FIREtag to the organelle
same,dissociation of the fluorescent ternary assembly after washout,"[2]; then washing with HBR-2,5DM-free medium",rapid dissociation of the fluorescent ternary assembly
same,reversibility of the fluorescent ternary assembly,[2]; then washout,full reversibility
